In publication PMC12794274, “Therapeutic potential of Sheng-Xian-Tang in doxorubicin-induced chronic heart failure by regulation of phenylalanine metabolism disruption” (Chinese Medicine, 2026):
Several values for one entry are separate records, joined by “and”; a condition that tells them apart may be missing. Equal values may be shown once.

Columns and labels:
[1] = tested on: DOX-induced chronic heart failure (CHF) rat model; assay: Echocardiography (LVEF%, LVFS%) in DOX-induced CHF rats; format: in vivo; settings: DOX group, cumulative 15 mg/kg, day 39
Protocol: Experiment I, 48 rats were randomly divided into six groups: (1) the CON group; (2) the DOX group; (3) the DOX + enalapril (ENP, positive control, 1.8 mg/kg) group; (4) the DOX + SXT at low dose group (4 g/kg); (5) the DOX + SXT at middle dose group (8 g/kg); and […] the DOX + SXT at high dose group (16 g/kg). Except those rats in the CON group, the remaining rats received DOX at a 2.5 mg/kg per injection to a cumulative dose of 15 mg/kg. The dose of SXT for the low-dose group was set at 4 g/kg, based on the minimum human clinical daily dose (48.5 g, Table S2) converted to an equivalent rat dose using body surface area normalization (48.5 g/70 kg × 6.3 ≈ 4.4 g/kg, rounded to 4 g/kg). To evaluate a clear dose–response relationship, the medium and high doses were established at 8 g/kg and 16 g/kg, respectively, corresponding to 2 fold and 4 fold the low dose. This gradient dosing strategy is consistent with the Technical Guidelines for Pharmacodynamic Studies of Traditional Chinese Medicine and the Technical Guidelines for General Pharmacology Studies of Traditional Chinese Medicine and Natural Drugs, and is further supported by our previous study on the effective dose range of SXT in a rat model of doxorubicin-induced chronic heart failure. Heart function was monitored by echocardiography analysis at day 39, and the CHF model was considered to be successfully established when the left ventricular ejection fraction (LVEF%) values were reduced to 50%. Urinary samples were collected at five time points (0, 10, 20, 30, and 39 d), while fecal samples were collected before the rats were euthanized. Subsequently, the rats were anesthetized, and blood samples and heart and liver tissues were collected. All bio-samples were stored at − 80 °C until analysis.
Experiment II was conducted to specifically confirm the exacerbated cardiac abnormality of phenylalanine in the DOX-induced CHF rats. […] Heart function was detected as in the experiment I.
Echocardiographic (ECG) measurements were performed using M-mode tracings and continuous Doppler with a Vevo 2100 system (Visual Sonics, Toronto, ON, Canada). Rats were anesthetized with isoflurane prior to imaging. Cardiac function indices including left ventricular ejection fraction (LVEF%) and left ventricular fractional shortening (LVFS%) were measured and recorded.

[2] = Rat body weight; format: in vivo; settings: DOX group vs CON group, experiment I
Protocol: Experiment I, 48 rats were randomly divided into six groups: (1) the CON group; (2) the DOX group; (3) the DOX + enalapril (ENP, positive control, 1.8 mg/kg) group; (4) the DOX + SXT at low dose group (4 g/kg); (5) the DOX + SXT at middle dose group (8 g/kg); and […] the DOX + SXT at high dose group (16 g/kg). Except those rats in the CON group, the remaining rats received DOX at a 2.5 mg/kg per injection to a cumulative dose of 15 mg/kg. The dose of SXT for the low-dose group was set at 4 g/kg, based on the minimum human clinical daily dose (48.5 g, Table S2) converted to an equivalent rat dose using body surface area normalization (48.5 g/70 kg × 6.3 ≈ 4.4 g/kg, rounded to 4 g/kg). To evaluate a clear dose–response relationship, the medium and high doses were established at 8 g/kg and 16 g/kg, respectively, corresponding to 2 fold and 4 fold the low dose. […] Heart function was monitored by echocardiography analysis at day 39, and the CHF model was considered to be successfully established when the left ventricular ejection fraction (LVEF%) values were reduced to 50%. […]

[3] = tested on: heart tissues; assay: Transmission electron microscopy of heart tissue; format: in vivo, rat; settings: experiment II; DOX alone, co-treatments vs DOX
Protocol: Freshly excised heart tissues were immediately fixed in 2.5% glutaraldehyde at 4 °C overnight. After washing with 0.1 M cacodylate trihydrate buffer, samples were post-fixed with 1% osmium tetroxide for 1 h. Tissues were then dehydrated through a graded ethanol series, incubated in acetone, and embedded in epoxy resin. Ultrathin sections were mounted on copper grids and imaged using a Hitachi HT7800 transmission electron microscope (Tokyo, Japan).

[4] = tested on: AML12 cells; format: cell-based, mouse
Protocol: Mouse hepatocellular cell lines (AML12), purchased from the Shanghai Cell Bank of Chinese Academy of Sciences (Shanghai, China), were cultured in Dulbecco’s Modified Eagle Medium (DMEM) supplemented with 10% fetal bovine serum (FBS) and 2 mM L-glutamine and 1% pyruvate and maintained at 37 °C in a […], 5% CO2 incubator. Cells were seeded at a density of 5 × 10^5 cells/well in 6-well plates. […] Cells’ survival rate was detected by Cell Counting Kit-8 (CCK8) Reagents (Thermo Scientific, Singapore).

Q: With `COc1cccc2c1C(=O)c1c(O)c3c(c(O)c1C2=O)C[C@@](O)(C(=O)CO)C[C@@H]3O[C@H]1C[C@H](N)[C@H](O)[C@H](C)O1` [DOX, Doxorubicin] as the compound, how does the LVFS [1] read?
A: < 30% and 25.62%

Q: What about the body weight [2] of the same compound?
A: significant reduction

Q: And the “mitochondrial ultrastructure of heart (electron microscopy)” value [3]?
A: mitochondrial shrinkage, increased membrane density, and marked reduction and shortening of cristae with focal vacuolization

Q: What about the MDA levels [4] of the same compound?
A: increase

Q: What about the SOD activity [4] of the same compound?
A: significant reduction
